Experimental data taken from patent publication US12458634B2, “Stabilized liquid formations containing picosulfate” (Ferring B.V., priority 2016, dated 2025).

Experiment: Chemical stability of sodium picosulfate liquid formulations on storage (UPLC/HPLC assay of sodium picosulfate and degradation products)
Settings: for Effect of the anti-oxidant on rate of formation of Picosulfate Benzyl Alcohol: formulations containing sodium picosulfate, magnesium citrate and malic acid; for Effect of the anti-oxidant on initial rate of formation of Picosulfate Benzyl Alcohol, Compound RRT 1.35 and Compound RRT 1.94: formulations containing sodium carboxymethylcellulose and malic acid (Table 14)
[1] = water-insoluble antioxidants (Table 21)
[2] = water-soluble antioxidants (Table 17)

Compound | Effect of the anti-oxidant on rate of formation of Picosulfate Benzyl Alcohol [1] | Effect of the anti-oxidant on rate of formation of Picosulfate Benzyl Alcohol [2] | Effect of the anti-oxidant on initial rate of formation of Picosulfate Benzyl Alcohol, Compound RRT 1.35 and Compound RRT 1.94
COc1ccc(O)c(C(C)(C)C)c1 [BHA, butylated hydroxyanisole] | effective to reduce the rate of formation | – | –
Cc1cc(C(C)(C)C)c(O)c(C(C)(C)C)c1 [BHT, butylated hydroxytoluene] | effective to reduce the rate of formation | – | –
N[C@@H](Cc1c[nH]cn1)C(=O)O [histidine] | – | effective to reduce the rate of formation | –
O=S([O-])S(=O)(=O)[O-].[K+].[K+] [potassium metabisulfite] | – | – | effective to reduce the initial rate of formation
CCCOC(=O)c1cc(O)c(O)c(O)c1 [propyl gallate] | effective to reduce the rate of formation | – | –
O=S([O-])S(=O)(=O)[O-].[Na+].[Na+] [sodium metabisulfite] | – | effective to reduce the rate of formation | effective to reduce the initial rate of formation
Cc1c(C)c2c(c(C)c1O)CC[C@@](C)(CCC[C@H](C)CCC[C@H](C)CCCC(C)C)O2 [α-tocopherol] | effective to reduce the rate of formation | – | –
